# Measurements reported in ChEMBL document CHEMBL1124733, “Synthesis and cardiac electrophysiological activity of N-substituted-4-(1H-imidazol-1-yl)benzamides--new selective class III agents” (J Med Chem, 1990).
# Where “and” joins values, the source holds several entries; their conditions need not be identical. Identical values can stand only once.
# Key:
# [1] = Percent change in the Vmax at a 10 uM concentration of the test compound; Minimal; assay type: ADME
# [2] = Maximum observed percent change in Vmax and the concentration at which it was observed was determined at 30 uM; Minimal; assay type: ADME
# [3] = organism: Canis familiaris; assay: Concentration which caused a 20% increase in AP95 was determined. Lowest and highest values given in brackets; not reached; assay type: functional; conditions: Canis lupus familiaris
# [4] = organism: Canis familiaris; assay: Maximum observed percent change in action potential duration (APD) at 95% repolarization at 3 uM using standard microelectrode technique in isolated canine cardiac Purkinje fibers; assay type: functional, Canis lupus familiaris, Purkinje fiber
# [5] = organism: Canis familiaris; assay: Percent change in action potential duration at 95% repolarization and 10 uM in isolated canine cardiac Purkinje fibres.; assay type: functional, Canis lupus familiaris, Purkinje fiber
# [6] = organism: Canis familiaris; assay: Concentration which caused a 20% increase in AP95 was determined.; assay type: functional, Canis lupus familiaris
# [7] = organism: Canis familiaris; assay: Maximum observed percent change in action potential duration (APD) at 95% repolarization at 10 uM using standard microelectrode technique in isolated canine cardiac Purkinje fibers; assay type: functional, Canis lupus familiaris, Purkinje fiber
# [8] = Maximum observed percent change in Vmax and the concentration at which it was observed was determined at 100 uM; Minimal; assay type: ADME
# [9] = Maximum observed percent change in Vmax and the concentration at which it was observed was determined at M[30] uM; Minimal; assay type: ADME
# [10] = organism: Canis familiaris; assay: Concentration which caused a 20% increase in AP95 was determined.; Not reached; assay type: functional; conditions: Canis lupus familiaris
# [11] = organism: Canis familiaris; assay: Maximum observed percent change in action potential duration (APD) at 95% repolarization at 100 uM using standard microelectrode technique in isolated canine cardiac Purkinje fibers; assay type: functional, Canis lupus familiaris, Purkinje fiber
# [12] = organism: Canis familiaris; assay: Maximum observed percent change in action potential duration (APD) at 95% repolarization at 30 uM using standard microelectrode technique in isolated canine cardiac Purkinje fibers; assay type: functional, Canis lupus familiaris, Purkinje fiber
# [13] = Maximum observed percent change in Vmax and the concentration at which it was observed was determined at 10 uM; assay type: ADME
# [14] = system: Canis familiaris; assay: Percent change in heart rate from control at 10 mg/kg, id; assay type: functional, Canis lupus familiaris; conditions: route intraduodenal
# [15] = system: Canis familiaris; assay: Percent change in heart rate from control at 3 mg/kg, iv; assay type: functional, Canis lupus familiaris
# [16] = system: Canis familiaris; assay: Percent change in heart rate from control at 30 mg/kg, id; assay type: functional, Canis lupus familiaris; conditions: route intraduodenal
# [17] = system: Canis familiaris; assay: Effective dose with the number of animals in PES efficacy model of anesthetized dog; Not effective in one animal; assay type: functional, Canis lupus familiaris
# [18] = system: Canis familiaris; assay: Effective dose with the number of animals in PES efficacy model of conscious dog; Not effective in one animal; assay type: functional, Canis lupus familiaris
# [19] = system: Canis familiaris; assay: In vivo electrophysiology was given as change in Function refractory period at 10 mg/kg, id; assay type: functional, Canis lupus familiaris; conditions: route intraduodenal
# [20] = system: Canis familiaris; assay: In vivo electrophysiology was given as change in Function refractory period at 3 mg/kg, iv; assay type: functional, Canis lupus familiaris
# [21] = system: Canis familiaris; assay: In vivo electrophysiology was given as change in Function refractory period at 30 mg/kg, id; assay type: functional, Canis lupus familiaris; conditions: route intraduodenal
# [22] = system: Canis familiaris; assay: Number of animals in which sustained ventricular tachycardia or ventricular fibrillation was not inducible after drug administration among the number of animals tested (5) in PES efficacy model of anesthetized dog; assay type: functional, Canis lupus familiaris, Cardiac ventricle
# [23] = system: Canis familiaris; assay: Number of animals in which sustained ventricular tachycardia or ventricular fibrillation was not inducible after drug administration among the number of animals tested (9) in PES efficacy model of anesthetized dog; assay type: functional, Canis lupus familiaris, Cardiac ventricle
# [24] = system: Canis familiaris; assay: Effective dose with the number of animals in PES efficacy model of anesthetized dog; assay type: functional, Canis lupus familiaris
# [25] = system: Canis familiaris; assay: Effective dose with the number of animals in PES efficacy model of conscious dog; assay type: functional, Canis lupus familiaris
# [26] = system: Canis familiaris; assay: Effective dose with the number of animals in PES efficacy model of conscious dog; Not effective in two animals; assay type: functional, Canis lupus familiaris
# [27] = system: Canis familiaris; assay: Number of animals in which sustained ventricular tachycardia or ventricular fibrillation was not inducible after drug administration among the number of animals tested (6) in PES efficacy model of anesthetized dog; assay type: functional, Canis lupus familiaris, Cardiac ventricle
# [28] = system: Canis familiaris; assay: Number of animals in which sustained ventricular tachycardia or ventricular fibrillation was not inducible after drug administration among the number of animals tested (4) in PES efficacy model of anesthetized dog; assay type: functional, Canis lupus familiaris, Cardiac ventricle
# [29] = Maximum observed percent change in Vmax and the concentration at which it was observed was determined; Minimal; assay type: ADME
# [30] = Maximum observed percent change in Vmax and the concentration at which it was observed was determined at 100 uM; assay type: ADME
# [31] = Maximum observed percent change in Vmax and the concentration at which it was observed was determined at 50 uM; Minimal; assay type: ADME
# [32] = Percent change in the Vmax at a 10 uM concentration of the test compound; assay type: ADME
# [33] = organism: Canis familiaris; assay: Maximum observed percent change in action potential duration (APD) at 95% repolarization at 1 uM using standard microelectrode technique in isolated canine cardiac Purkinje fibers; assay type: functional, Canis lupus familiaris, Purkinje fiber
# [34] = Maximum observed percent change in Vmax and the concentration at which it was observed was determined at 10 uM; Minimal; assay type: ADME
SMILES,Delta Vmax [1],Delta APD95 [5] [%],max Delta Vmax [2],C20 APD95 [6] [µM],Max delta APD95 [7] [%],max Delta Vmax [8],C20 APD95 [10],Max delta APD95 [11] [%],Max delta APD95 [12] [%],also measured
O=C(NC1CCNCC1)c1ccc(-n2ccnc2)cc1,Minimal,5,,,,,,,,Max delta [2]: Minimal; C20 APD95 [3]: Not reached; Max delta APD95 [4]: 10%
CS(=O)(=O)O.O=C(c1ccc(-n2ccnc2)cc1)N1CCN(Cc2ccccc2)CC1,Minimal,46,Minimal,0.9,46,,,,,
CCN(CC)CCNC(=O)c1ccc(-n2ccnc2C)cc1.CS(=O)(=O)O,Minimal,4,,,13,Minimal,Not reached,16,,max Delta Vmax [9]: Minimal
CCN(CC)CCN(Cc1ccccc1)C(=O)c1ccc(-n2ccnc2)cc1,Minimal,65,Minimal,0.5,,,,,65,
CN1CCN(S(=O)(=O)c2ccc(-n3ccnc3)cc2)CC1,Minimal,9,,39,24,Minimal,Not reached,,14,max Delta Vmax [13]: -23%
CCN(CC)CCCNC(=O)c1ccc(-n2ccnc2)cc1.Cl.Cl,,40,,3,,,,,48,
O=C(c1ccc(-n2ccnc2)cc1)N1CCNCC1,Minimal,17,,10.5,,,Not reached,,28,Max delta [2]: Minimal
CCN(CC)CCNC(=O)c1ccc(NS(C)(=O)=O)cc1.Cl [SEMATILIDE HYDROCHLORIDE],Minimal,31,Minimal,4.4,,Minimal,,65,51,HR [14]: -17; HR [15]: -23; HR [16]: -17; Effective dose [17]: 3 mg/kg; Effective dose [18]: 10 mg/kg; FRP [19]: 15%; FRP [20]: 19%; FRP [21]: 18%; No. effective [22]: 4; No. effective [23]: 8
CCN(CC)CCNC(=O)c1ccc(-n2ccnc2)cc1.Cl.Cl,Minimal,34,Minimal,2.9,,Minimal,,56,52.5,HR [14]: -15; HR [15]: -18; HR [16]: -29; Effective dose [24]: 1 mg/kg; Effective dose [17]: 10 mg/kg; Effective dose [25]: 0.3 mg/kg; Effective dose [26]: 3 mg/kg; FRP [19]: 12%; FRP [20]: 13%; FRP [21]: 19%; No effective/ no. tested [27]: 4; No. effective [28]: 3
O=C(NCCN(Cc1ccccc1)Cc1ccccc1)c1ccc(-n2ccnc2)cc1,Minimal,6,Minimal,,,,Not reached,,6.5,
Cl.NCCNC(=O)c1ccc(-n2ccnc2)cc1,Minimal,1,,,10,,Not reached,13,,max Delta Vmax [29]: Minimal
O=C(NC1CCN(Cc2ccccc2)CC1)c1ccc(-n2ccnc2)cc1,Minimal,75,Minimal,0.7,,,,,97,
Cl.O=C(NCCNCc1ccccc1)c1ccc(-n2ccnc2)cc1,Minimal,41,,1.2,41,,,59,,max Delta Vmax [30]: -11%; max Delta Vmax [31]: Minimal
CCN(CC)CCNC(=O)c1ccc(-c2ncc[nH]2)cc1.Cl.Cl,Minimal,7,,65,,,,31,,max Delta Vmax [30]: -14%
CCN(CC)CCNC(=O)c1cccc(-n2ccnc2)c1.Cl.Cl,Minimal,27,Minimal,4,50,Minimal,,,60,
CCN(CC)CCN(C(=O)c1ccc(-n2ccnc2)cc1)c1cccc2ccccc12,,28,-31%,0.4,46,,Not reached,,,Delta Vmax [32]: -14%; Max delta APD95 [33]: 39% and 18% and 24%
CN1CCN(C(=O)c2ccc(-n3ccnc3)cc2)CC1.Cl.Cl,Minimal,32,Minimal,3.7,31,,,,55,max Delta Vmax [34]: Minimal
CCN1CCCC1CNC(=O)c1ccc(-n2ccnc2)cc1.Cc1ccc(S(=O)(=O)O)cc1 (stereo not given),,39,,3,,Minimal,,72,,Delta Vmax [32]: -13%; max Delta Vmax [30]: -26%
CCN(CC)[C@H]1CCCCC1NC(=O)c1ccc(-n2ccnc2)cc1.Cl (stereo not given in full),Minimal,60,,1.2,,,,85,,Max delta [30]: -46%
